# Test results reported in patent US20040131574A1, “Method and composition for the control of hair growth” (priority 2001, published 2004).
# How the values were obtained:
# Format in all cases: in vivo
# hair regrowth [1] = assay: hair regrowth after shaving in dogs treated s.c. twice daily for 13 days, versus saline control dog; settings: total daily dose 4-3 mg/kg; for relative order of hair regrowth: approximately 6 weeks post-drug; for hair regrowth compared with control dog: shaved 3 days post-drug, observed approximately 6 weeks post-drug
# Description: Several dogs were treated with (R,R) or (S,S)—(HO)2DEHSPM s.c. twice daily for 13 days. The total daily dose was 4-3 mg/kg. One additional dog served as a saline-treated control animal. All of the dogs were Holter monitored once weekly for evidence of cardiac rhythm disturbances. A post-drug Holter monitoring was performed 3 days post-drug and hair was shaved at that time to allow for the placing of the leads.
# hair regrowth [2] = assay: hair regrowth after shaving in dogs treated s.c. for 20 days; settings: s.c. 4.3 mg/kg/d for 20 days, shaved 5 days post-drug, observed approximately 8 weeks post-drug
# Description: Two dogs were treated with (R,R)—(HO)2DEHSPM (dihydroxydiethylhomospermine) s.c. at a dose of 4.3 mg/kg/d for 20 days. The dogs were Holter-Monitored once weekly for evidence of cardiac rhythm disturbances. A post-drug Holter monitoring was performed 5 days post-drug and hair was shaved at that time to allow for the placing of the leads.
# [3] = test system: hair growth in the shaved area; assay: hair re-growth in partially shaven mice; settings: C57/B16 mice
# Description: Fourteen C57/B16 mice were partially shaven; one was maintained as a control and to the remainder was administered diethyl-homospermine [10 mg/kg-0.01% solution (Bid)], six times daily over 9 days.
# The above test (Example 1) was repeated except that the dosage of polyamine was 7.5 mg/kg.
Structure (SMILES),relative order of hair regrowth (hair regrowth [1]),hair regrowth compared with control dog (hair regrowth [1]),hair regrowth at shaved Holter lead sites (hair regrowth [2]),"resumption of normal hair growth in the shaved area ([3]; 10 mg/kg-0.01% solution (Bid), six times daily over 9 days)","normal hair re-growth in the shaved areas ([3]; dosage 7.5 mg/kg, otherwise as Example 1)"
"CCNC[C@H](O)CCNCCCCNCC[C@@H](O)CNCC [(R,R)—(HO)2DEHSPM, (R,R)-dihydroxydiethylhomospermine]","control dog >(S,S)—(HO)2DEHSPM dogs>(R,R)—HO2DEHSPM dogs",this was not the case with the treated animals,hair from the last Holter monitoring had not grown back,–,–
"CCNC[C@@H](O)CCNCCCCNCC[C@H](O)CNCC [(S,S)—(HO)2DEHSPM, (S,S)-dihydroxydiethylhomospermine]","control dog >(S,S)—(HO)2DEHSPM dogs>(R,R)—HO2DEHSPM dogs",this was not the case with the treated animals,–,–,–
"CCNCCCCNCCCCNCCCCNCC [diethyl-homospermine, N,N′-diethylhomospermine]",–,–,–,"The control resumed normal hair growth immediately in the shaved area, unlike the remainder of the mice in the test",the mice treated with the polyamine did not
